Experimental data as given in paper PMC6906431, “Selective small molecule PARG inhibitor causes replication fork stalling and cancer cell death” (Nature Communications, 2019).

Tests used:
[1] = system: A172 glioblastoma cells; assay: Sulforhodamine B (SRB) cytotoxicity assay; conditions: Homo sapiens, A 172, 72 h
Protocol: (§1) Normalized % viabilities are plotted against log concentration. Error bars show the percent coefficient of variation. […] Mann-Whitney test was used to generate the p-value. The DNA spread assay is the representation of two independently repeated experiments. Source Data are provided as a Source Data file.
(§2) Cells were plated in 96-well plates, treated as designated in reduced 5% FBS and fixed with trichloroacetic acid after 72 h, as previously described by[43]. […] Colorimetric or fluorescence analysis was performed in a FlexStation 3, using SoftMax Pro 7.0, Molecular Devices. Normalized graphs were generated with Prism 8 software, non-linear 4-parameter data fitting was performed for IC50 calculation.

[2] = Sulforhodamine B (SRB) cytotoxicity assay; conditions: human, A172 glioblastoma cells
Protocol: as §1, §2

[3] = system: PARPi resistant SUM149PT cells; assay: PAR and gH2AX high-content imaging in PARPi-resistant cells; assay type: cell-based, human; conditions: 10 µM JA2131 2 h; 3Gy IR
Protocol: PARG inhibitors as potential therapeutic option for PARP1 inhibitor resistant cancers.
As PARP1 inhibitors are now widely used in the clinic but frequently resistance is emerging, we evaluated if PARG may be a therapeutic option for patients who become PARP1 inhibitor resistant. We therefore generated PARP1 inhibitor resistant SUM149PT triple negative breast cancer cell-lines through with 100 nM talazoparib for 5 constitutive days and then with 15-50 nM talazoparib until resistant cells grew into clones. The resulting resistant cell clones were propagated and expanded to generate PARP inhibitor resistant SUM149PT derivative cells that no longer responded to PARP1i treatment. We then investigated whether the PARP resistant breast cancer cells would response to the PARG inhibitors. Four PARPi resistant SUM149PT cell clones together with wild type cells were treated with JA2131. PAR accumulation and gH2AX foci formation were analyzed by high content imaging (Fig. S6). Treatment of cells with […]
immu n o fluorescence signals. The PAR accumulation and gH2AX foci formation was very similar […]
PARP1 resistant patients.
Supplementary Fig. 17: PARPi resistant cells respond to JA2131 PARGi. (a) PARGi sensitizes PARP1i resistant breast cancer cells. […]

Cn1c(=S)c2[nH]c(SCCN3CCOCC3)nc2n(C)c1=O [JA2131]
IC50 [1]: 55.3 ± 7.9 µM
viability at 72 h, 0.244 µM [2]: 100%
viability at 72 h, 0.488 µM [2]: 98.3%
viability at 72 h, 0.977 µM [2]: 99.4%
viability at 72 h, 1.95 µM [2]: 101%
viability at 72 h, 3.91 µM [2]: 104%
viability at 72 h, 7.82 µM [2]: 96.7%
viability at 72 h, 15.6 µM [2]: 95.9%
viability at 72 h, 31.3 µM [2]: 78.7%
viability at 72 h, 62.5 µM [2]: 53.3%
viability at 72 h, 125 µM [2]: 16.6%
viability at 72 h, 250 µM [2]: 14.4%
viability at 72 h, 500 µM [2]: 13.5%
PAR accumulation and gH2AX staining [3]: increased PAR accumulation as well as gH2AX staining
